Laboratory results taken from paper PMC5751249, “Anti-Diabetic Effect of Organo-Chalcogen (Sulfur and Selenium) Zinc Complexes with Hydroxy-Pyrone Derivatives on Leptin-Deficient Type 2 Diabetes Model ob/ob Mice” (International Journal of Molecular Sciences, 2017).
Read-outs that look alike come from different tables or passages of the source.

What was measured:
[1] = test system: type 2 diabetic ob/ob mice; assay: Triglyceride and glycogen contents in the liver; format: in vivo; conditions: ob/ob mice after 28 days oral treatment
Method: Lipids in the liver were extracted according to modified Folch method. TG in the extracted lipids was detected using the triglyceride E test wako (Wako Pure Chemicals Co., Osaka, Japan). Glycogen in the liver was extracted with a strong base (30% KOH aq). Then, ethanol precipitation methods (using 95% ethanol and saturated Na2SO4), hydrolysis, and neutralization (with 2.4 M HCl aq and 0.8 M NaOH aq) of the glycogen extracts were performed, resulting in degradation to glucose solution. To detect the glucose levels in the solution using the glucose CII test wako (Wako Pure Chemicals Co., Osaka, Japan), glycogen levels in the liver were estimated. Because the liver sample of normal mice was used up during TG detection and ICP-MS analysis, glycogen content in the liver could not be detected.

[2] = test system: type 2 diabetic ob/ob mice; format: in vivo
Method: (§1) After OGTT, HbA1c levels were measured in blood obtained from the mouse tail vein using an immunoassay with a DCA 2000 analyzer (Bayer-Sankyo Co., Ltd., Tokyo, Japan). The mice were subjected to a 12-h fast and blood samples were collected from the orbital vein or postcaval vein under isoflurane anesthesia using heparinized tools. Collected samples were then centrifuged at 650× g for 10 min at 4 °C, and the resultant plasma samples were used to analyze various biochemical parameters. The levels of AST, ALT, BUN, TG, T-CHO, and ALP in plasma samples were determined using a Fuji Dry Chem system. The plasma levels of insulin and adiponectin were determined using an ultra-sensitive Mouse Insulin ELISA Kit (Morinaga Institute of Biological Science, Inc., Kanagawa, Japan) and an adiponectin immunoassay kit (R&D Systems Inc., Minneapolis, MN, USA), respectively. After collecting the blood samples, mice were subjected to dissection under isoflurane anesthesia, and the resultant tissue samples were washed in saline. Each of the samples was dehydrated for a week in desiccators, weighed, and then heated in 5% HNO3 (5 mL) for 5 h at 110 °C in a closed system. The resultant solution was centrifuged at 1250× g for 15 min, and the supernatant was diluted using 5% HNO3. Both Zn and Se concentrations in organs were determined with an ICP-MS Agilent 7700x/Mass Hunter instrument (Agilent Technologies Inc., Santa Clara, CA, USA). The Zn and Se concentrations in each sample were calculated using linear regression of the standard curves prepared from standard solutions of the respective trace elements.

[3] = test system: type 2 diabetic ob/ob mice; assay: Histopathology and morphometric analysis of pancreas and liver (HE staining); format: in vivo; conditions: 14-week-old mice
Method: Excised pancreas and liver from 14-week-old mice were immediately fixed in 10% buffered formalin for a week, sectioned at a thickness of 3 μm, and stained with HE for histopathological examination. HE-stained tissue sections were scanned using a Moticam T2 (Shimadzu Co., Kyoto, Japan) to prepare digital images. Both pancreatic islet area and glycogen and fat deposition areas were calculated with the dedicated image processing software WinROOF (Mitani Corp., Tokyo, Japan).

[4] = Organ distribution of Zn and Se by ICP-MS after 28 days oral treatment; format: in vivo, mice
Method: as §1

[5] = test system: type 2 diabetic ob/ob mice; assay: Oral glucose tolerance test (OGTT) after 28 days treatment; format: in vivo
Method: After treatment with [Zn(hmpt)2] or [Zn(hmps)2] for 28 days, OGTTs were performed. The ob/ob mice and +/+ mice were fasted for 12-h and glucose (1 g/kg body weight) was given orally. Blood samples were obtained from the tail vein at 0, 15, 30, 45, 60, 90, and 120 min after glucose administration. Blood glucose concentrations were measured using a Glucocard.

[6] = test system: type 2 diabetic ob/ob mice; assay: Daily oral treatment of ob/ob mice for 28 days: blood glucose, body weight, water intake; format: in vivo
Method: The anti-diabetic effects of both [Zn(hmpt)2] and [Zn(hmps)2] were examined in ob/ob mice. The ob/ob and +/+ mice were used as type 2 diabetic and normal (non-diabetic) mice, respectively. The ob/ob (10-week-old) and +/+ (10-week-old) mice received daily oral treatment of either Zn complexes dissolved in PEG-400 or PEG-400 only, respectively. The mice received oral treatments of [Zn(hmpt)2] or [Zn(hmps)2] at doses of 2.5–10 mg Zn/kg or 1.0–5.0 mg Zn/kg for 28 days, respectively. Blood glucose levels (BGL) were measured using a Glucocard (Arkray, Kyoto, Japan) just before treatment with the Zn complexes, and the doses were regulated based on the BGL. Over 28 days, BGL, body weight, food intake, and water intake were measured every day. The number of normal mice (+/+ mice), control mice (ob/ob mice), [Zn(hmpt)2]-treated, and [Zn(hmps)2]-treated mice was 6, 8, 8, and 8 in the initial animal experiments, respectively. This was modified to 6, 6, 7, and 8 after the end of experiments as two control mice died naturally by the end of experiments, and one [Zn(hmpt)2]-treated mouse died from an accident during the oral glucose tolerance test.

[7] = test system: Isolated male Wistar rat epididymal adipocytes; assay: Glucose uptake into adipocytes (in vitro insulin-mimetic activity); format: cell-based; conditions: 20 μM Zn complex, means ± SDs, three runs
Method: The in vitro insulin-mimetic activities of Zn complexes were determined by the inhibition of FFA release from adipocytes and increase of glucose uptake into adipocytes. Isolated male Wistar rat epididymal adipocytes (1.0 × 10^6 cells/mL) were prepared and pre-incubated separately with various concentrations of the different Zn complexes in 5 mM glucose in Krebs-Ringer bicarbonate buffer (120 mM NaCl, 1.3 mM CaCl2, 1.2 mM MgSO4, 4.8 mM KCl, 1.2 mM KH2PO4, 24 mM NaHCO3, pH 7.4) containing 2% BSA, with shaking at 100 cycles/min for 30 min at 37 °C. Adrenaline (15 μL, 0.2 mM) was then added to the mixtures, and the resultant solutions were then incubated for 3 h at 37 °C. The reaction mixture was subsequently centrifuged at 650× g for 10 min at 4 °C. FFA levels in the extracellular solutions were determined using an FFA measuring kit (NEFA C-test Wako) and the IC50 value, which is the 50% inhibitory concentration of FFA-release in each complex, was calculated. Glucose concentrations in the solutions with 20 μM Zn complexes were determined using a Fuji Dry Chem system (Fuji Medical Co., Tokyo, Japan) and then the glucose uptake quantities/(1.0 × 10^6 cells) in the 20 μM Zn complexes were calculated.

[8] = test system: Isolated male Wistar rat epididymal adipocytes; parameters: method as in PMID 29843022; conditions: adrenaline-stimulated, means ± SDs, three runs, read-out: IC50 of free fatty acid release; cited from earlier work
[9] = test system: Isolated male Wistar rat epididymal adipocytes; parameters: method as in PMID 29843022; conditions: 20 μM Zn complex, means ± SDs, three runs; cited from earlier work

Which results are given for `Cc1occc(=S)c1[O-].Cc1occc(=S)c1[O-].[Zn+2]` [[Zn(hmpt)2], bis(3-hydroxy-2-methyl-4(H)-pyran-4-thiono)Zn]?
Glycogen content in the liver ([1]; control 0.08 ± 0.04): 0.03 ± 0.01 mg/g liver; TG content in the liver ([1]; control 437 ± 139): 309 ± 134 mg/g liver; ALP (plasma) ([2]; mouse, in vivo, po): 360 ± 88 U/L; ALT (plasma) ([2]; mouse, in vivo, po): 118 ± 68 U/L; AST (plasma) ([2]; mouse, in vivo, po): 103 ± 25 U/L; BUN (plasma) ([2]; mouse, in vivo, po): 23 ± 2 **^,## mg/dL; Insulin (fasting plasma) ([2]; ob/ob mice after 28 days oral treatment, control 2.2 ± 1.0): 0.9 ± 0.3 ng/mL; HbA1c ([2]; ob/ob mice after 28 days oral treatment, control 7.9 ± 0.8): 6.5 ± 0.7 **^,## %; Adiponectin (plasma) ([2]; ob/ob mice after 28 days oral treatment, control 8.2 ± 1.1): 9.4 ± 0.8 µg/mL; TG (plasma) ([2]; ob/ob mice after 28 days oral treatment, control 83 ± 16): 76 ± 25 mg/dL; T-CHO (plasma) ([2]; ob/ob mice after 28 days oral treatment, control 195 ± 16): 189 ± 42 mg/dL; Pancreatic islet numbers per section ([3]; among normal, control and treated mice): not significantly changed; Glycogen and fat deposition area ratio in the liver ([3]; between control and treated mice): no significant differences; Pancreatic islet area ratio and size ([3]; compared with normal mice): significantly increased; Se concentration, kidney ([4]; dry tissue, ob/ob mice after 28 days oral treatment, control 6.4 ± 0.2): 5.8 ± 0.5 µg/g; Zn concentration, kidney ([4]; dry tissue, ob/ob mice after 28 days oral treatment, control 67 ± 3): 73 ± 4 µg/g; Δ[Zn], bone ([4]; mouse, in vivo, po): 517 nmol/g; Δ[Zn], kidney ([4]; mouse, in vivo, po): 86 nmol/g; Δ[Zn], liver ([4]; mouse, in vivo, po): 453 nmol/g; Δ[Zn], pancreas ([4]; mouse, in vivo, po): 302 nmol/g; Δ[Zn], plasma ([4]; mouse, in vivo, po): 3 nmol/g; Area under the blood glucose concentration-time curve (AUC) in OGTT ([5]; 1 g glucose/kg oral, after 28 days treatment, compared with control mice): significantly decreased; Fasting blood glucose level (0 min of OGTT) ([5]; ob/ob mice after 28 days oral treatment, 12-h fast, control 237 ± 52 mg/dL): 143 ± 75 mg/dL; Blood glucose level by the end of treatment ([6]; [Zn(hmpt)2] 2.5–10 mg Zn/kg, [Zn(hmps)2] 1.0–5.0 mg Zn/kg): approximately 200 mg/dL; Water intake on the final day ([6]; control 12.6 ± 1.6 g, p < 0.01 vs. control): 7.5 ± 2.5 g; Body weight change during treatment ([6]; loss seen day 22 to 25, recovered after dose reduction): body weight loss; Glucose Uptake [7]: 79 ± 26 µg/10^6 Cells

With `O.O.O.O.O.O.O.O=S(=O)([O-])[O-].[Zn+2]` [ZnSO4, Zinc sulfate heptahydrate, reference compound] as the molecule, how does the IC50 [8] read?
The IC50 was 585 ± 305 µM.

What about the “Glucose Uptake” value [9] of the same molecule?
Its value is “none”.
